Experimental data reported in patent publication US8299036B2, “Active agent combinations with insecticidal and acaricidal properties” (priority 2003, dated 2012).

What was measured:
Assay type in all cases: in vivo
[1] = test system: Heliothis armigera; assay: Heliothis armigera test (cabbage leaves, dip); conditions: for Kill rate in % after 6 d, found: Table B 1; for Kill rate in % after 3 d, found: Table B 2
Procedure: (§1) To produce a suitable preparation of active compound, 1 part by weight of active compound is mixed with the stated amounts of solvent and emulsifier, and the concentrate is diluted with emulsifier-containing water to the desired concentration.
Cabbage leaves (Brassica oleracea) are treated by being dipped into the preparation of active compound of the desired concentration and are populated with caterpillars of the cotton boll worm (Heliothis armigeia) while the leaves are still moist.
After the desired period of time, the kill in % is determined. 100% means that all caterpillars have been killed; 0% means that none of the caterpillars have been killed. The kill rates determined are calculated using Colby's formula (see page 44).

[2] = test system: Phaedon cochleariae larvae; assay: Phaedon cochleariae larvae test (cabbage leaves, dip)
Procedure: Phaedon cochleariae Larvae Test
as §1
Cabbage leaves (Brassica oleracea) are treated by being dipped into the preparation of active compound of the desired concentration and are populated with larvae of the mustard beetle (Phaedon cochleariae) while the leaves are still moist.
After the desired period of time, the kill in % is determined. 100% means that all beetle larvae have been killed; 0% means that none of the beetle larvae have been killed. The kill rates determined are calculated using Colby's formula (see page 44).

[3] = test system: Tetranychus urticae (OP-resistant); assay: Tetranychus urticae test (OP-resistant; dip application)
Procedure: Tetranychus urticae Test (OP-Resistant; Dip Application)
as §1
Bush beans (Phaseolus vulgaris) which are heavily infested by the greenhouse red spider mite (Tetranychus urticae) are dipped into a preparation of active compound of the desired concentration.
After the desired period of time, the kill in % is determined. 100% means that all spider mites have been killed; 0% means that none of the spider mites have been killed. The kill rates determined are calculated using Colby's formula (see page 44).

[4] = test system: Myzus persicae; assay: Myzus persicae test (cabbage leaves, dip); conditions: Table C
Procedure: as §1
Cabbage leaves (Brassica oleracea) which are heavily infested by the green peach aphid (Myzus persicae) are treated by being dipped into the preparation of active compound of the desired concentration.
(§2) After the desired period of time, the kill in % is determined. 100% means that all aphids have been killed; 0% means that none of the aphids have been killed. The kill rates determined are calculated using Colby's formula (see page 44).

[5] = test system: Aphis gossypii; assay: Aphis gossypii test (cotton leaves, dip); conditions: Table A
Procedure: To produce a suitable preparation of active compound, 1 part by weight of active compound is mixed with the stated amount of solvent and emulsifier, and the concentrate is diluted with emulsifier-containing water to the desired concentration.
Cotton leaves (Gossypium hirsutum) which are heavily infested by the cotton aphid (Aphis gossypii) are treated by being dipped into the preparation of active compound of the desired concentration.
as §2

abamectin [(2-2) abamectin, reference compound]
Kill rate in % after 6 d, found ([1]; 0.16 ppm): 50%

CCC(C)(C)C(=O)OC1=C(c2ccc(Cl)cc2Cl)C(=O)OC12CCCCC2 [Example I-2]
Kill rate in % after 4 d, found ([2]; Table D 1, 100 ppm): 0%
Kill rate in % after 7 d, found ([3]; Table E 1, 0.8 ppm): 0%

Cc1cc(C)c(C2=C(OC(=O)CC(C)(C)C)C3(CCCC3)OC2=O)c(C)c1 [Example I-1]
Kill rate in % after 4 d, found ([2]; Table D 2, 100 ppm): 45%
Kill rate in % after 7 d, found ([3]; Table E 2, 0.8 ppm): 65%

O=S1OCC2C(CO1)C1(Cl)C(Cl)=C(Cl)C2(Cl)C1(Cl)Cl (stereo not shown) [(2-20) endosulfan, endosulfan, reference compound]
Kill rate in % after 6 d, found ([4]; 20 ppm): 15%

spinosad [(2-17) spinosad, reference compound]
Kill rate in % after 3 d, found ([1]; 0.032 ppm): 0%

CC(C)c1cc(Oc2ccccc2)cc(C(C)C)c1NC(=S)NC(C)(C)C [(2-5) diafenthiuron, diafenthiuron, reference compound]
Kill rate in % after 1 d, found ([5]; 20 ppm): 15%

Cc1cc(Cl)cc(C(=O)NC(C)C)c1NC(=O)c1cc(C(F)(F)F)nn1-c1ncccc1Cl [II-1-9]
Kill rate in % after 1 d, found ([5]; 4 ppm): 10%
Kill rate in % after 6 d, found ([1]; 0.0064 ppm): 30%
Kill rate in % after 3 d, found ([1]; 0.0064 ppm): 10%
Kill rate in % after 6 d, found ([4]; 4 ppm): 25%
Kill rate in % after 4 d, found ([2]; Table D 1, 0.16 ppm): 0%
Kill rate in % after 4 d, found ([2]; Table D 2, 0.16 ppm): 5%
Kill rate in % after 7 d, found ([3]; Table E 1, 100 ppm): 0%
Kill rate in % after 7 d, found ([3]; Table E 2, 100 ppm): 0%
